Experimental findings from ChEMBL document CHEMBL4765381, “Neuropeptide FF and Its Receptors: Therapeutic Applications and Ligand Development” (J Med Chem, 2020) are described below.

Each structure is given as a SMILES string. Peptide text beside a SMILES is read from it. Some results are limits rather than exact numbers.

Experiment [1] is described as follows: Displacement of [125I][Tyr1]-NPFF from NPFF receptor in rat spinal cord membranes by Cheng-Prusoff analysis. The experiment is classed as cell membranes, Membrane. A general note: Loss of bound radioactivity is the signal in a displacement assay; it reports binding, not function.
The test system of another experiment is Mus musculus. Kind of experiment: Reversal of morphine-induced analgesia in icv dosed CDF1 mouse assessed as minimum effective dose measured after 15 mins by tail-flick test. The experiment is classed as functional. The note with it: 0.25 h. On the technique in general: Hot-plate and tail-flick tests time the reaction to a heat stimulus.
Experiment [2] can be described thus: Displacement of [ […]]Y8Famide from NPFFR in rat spinal cord membranes. The format is cell membranes, Membrane.
Experiment [3] concerns the target T1, Pyroglutamylated RF-amide peptide receptor (Homo sapiens, UniProt Q96P65).
T1 sequence (Q96P65 whole entry): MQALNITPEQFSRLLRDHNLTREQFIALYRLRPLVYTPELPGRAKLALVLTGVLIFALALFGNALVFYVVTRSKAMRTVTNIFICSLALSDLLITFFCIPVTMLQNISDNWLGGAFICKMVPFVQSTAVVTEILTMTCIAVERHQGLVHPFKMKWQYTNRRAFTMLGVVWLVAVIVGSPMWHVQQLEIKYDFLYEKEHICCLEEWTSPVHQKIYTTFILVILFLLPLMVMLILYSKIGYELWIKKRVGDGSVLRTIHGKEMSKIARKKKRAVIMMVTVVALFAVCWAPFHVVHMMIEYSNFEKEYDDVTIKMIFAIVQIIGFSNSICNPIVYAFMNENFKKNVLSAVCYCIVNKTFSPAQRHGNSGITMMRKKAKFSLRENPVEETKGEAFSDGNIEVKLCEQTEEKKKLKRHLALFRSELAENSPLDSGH
The experiment can be described thus: Displacement of [125I]-43RFa from human QRFP receptor expressed in CHO cell membrane by TopCount scintillation counter method. The experiment is classed as cell membranes.

In experiment [4] the target is T2, Prolactin-releasing peptide receptor (Homo sapiens, UniProt P49683).
T2 sequence (P49683 whole entry): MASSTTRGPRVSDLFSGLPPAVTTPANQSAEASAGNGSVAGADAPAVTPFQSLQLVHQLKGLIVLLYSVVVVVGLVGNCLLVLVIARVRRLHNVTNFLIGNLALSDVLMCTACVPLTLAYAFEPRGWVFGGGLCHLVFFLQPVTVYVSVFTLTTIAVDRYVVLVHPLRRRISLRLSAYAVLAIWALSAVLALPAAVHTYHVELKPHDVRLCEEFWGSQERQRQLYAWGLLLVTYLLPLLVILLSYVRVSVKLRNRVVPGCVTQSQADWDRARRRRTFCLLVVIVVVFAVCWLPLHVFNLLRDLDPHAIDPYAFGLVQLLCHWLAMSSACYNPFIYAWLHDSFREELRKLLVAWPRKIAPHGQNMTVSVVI
The experiment can be described thus: Displacement of [3H]-PrRP-20 from human PrRP receptor expressed in CHO cell membrane by TopCount scintillation counter method. The experiment is classed as cell membranes.

The target in another experiment is KiSS-1 receptor (Homo sapiens, UniProt Q969F8). Kind of experiment: Displacement of [125I]-Kp-10 from human KISS1R expressed in CHO cell membrane by TopCount scintillation counter method. The format is cell membranes.
Sequence of KiSS-1 receptor (Q969F8 whole entry): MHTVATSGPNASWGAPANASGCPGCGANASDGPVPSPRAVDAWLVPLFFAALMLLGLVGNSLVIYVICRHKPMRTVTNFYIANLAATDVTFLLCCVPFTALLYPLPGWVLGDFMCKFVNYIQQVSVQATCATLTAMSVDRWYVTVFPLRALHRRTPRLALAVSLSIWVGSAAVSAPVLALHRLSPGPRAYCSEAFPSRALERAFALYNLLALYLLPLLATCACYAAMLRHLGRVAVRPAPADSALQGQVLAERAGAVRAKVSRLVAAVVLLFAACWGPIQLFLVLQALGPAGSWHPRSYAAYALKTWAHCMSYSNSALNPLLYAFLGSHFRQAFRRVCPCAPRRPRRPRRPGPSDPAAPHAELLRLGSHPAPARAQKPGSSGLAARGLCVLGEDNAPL
The target in experiment [5] is T3, Neuropeptide FF receptor 1 (Homo sapiens, UniProt Q9GZQ6). Kind of experiment: Agonist activity at NPFFR1 (unknown origin) expressed in mouse NIH3T3 cells by receptor selection and amplification technology assay relative to control. The format is cell-based.
T3 sequence (Q9GZQ6 whole entry): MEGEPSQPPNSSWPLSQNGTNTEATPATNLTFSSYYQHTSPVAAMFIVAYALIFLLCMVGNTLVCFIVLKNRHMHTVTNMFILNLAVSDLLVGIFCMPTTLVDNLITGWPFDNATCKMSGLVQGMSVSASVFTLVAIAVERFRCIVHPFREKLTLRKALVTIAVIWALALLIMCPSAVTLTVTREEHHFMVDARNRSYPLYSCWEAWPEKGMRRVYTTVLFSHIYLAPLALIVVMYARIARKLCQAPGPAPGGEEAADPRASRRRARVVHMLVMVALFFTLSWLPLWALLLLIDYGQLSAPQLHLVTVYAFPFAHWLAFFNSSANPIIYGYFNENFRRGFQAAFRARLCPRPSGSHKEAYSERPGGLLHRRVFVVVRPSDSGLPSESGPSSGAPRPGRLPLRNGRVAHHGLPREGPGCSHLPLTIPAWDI
The target in experiment [6] is T3, Neuropeptide FF receptor 1. Kind of experiment: Agonist activity at NPFFR1 (unknown origin) expressed in mouse NIH3T3 cells by receptor selection and amplification technology assay. The format is cell-based.
In experiment [7] the target is T4, Neuropeptide FF receptor 2 (Homo sapiens, UniProt Q9Y5X5). The experiment can be described thus: Agonist activity at NPFFR2 (unknown origin) expressed in mouse NIH3T3 cells by receptor selection and amplification technology assay relative to control. The format is cell-based. The note with it: filed as agonist.
T4 sequence (Q9Y5X5 whole entry): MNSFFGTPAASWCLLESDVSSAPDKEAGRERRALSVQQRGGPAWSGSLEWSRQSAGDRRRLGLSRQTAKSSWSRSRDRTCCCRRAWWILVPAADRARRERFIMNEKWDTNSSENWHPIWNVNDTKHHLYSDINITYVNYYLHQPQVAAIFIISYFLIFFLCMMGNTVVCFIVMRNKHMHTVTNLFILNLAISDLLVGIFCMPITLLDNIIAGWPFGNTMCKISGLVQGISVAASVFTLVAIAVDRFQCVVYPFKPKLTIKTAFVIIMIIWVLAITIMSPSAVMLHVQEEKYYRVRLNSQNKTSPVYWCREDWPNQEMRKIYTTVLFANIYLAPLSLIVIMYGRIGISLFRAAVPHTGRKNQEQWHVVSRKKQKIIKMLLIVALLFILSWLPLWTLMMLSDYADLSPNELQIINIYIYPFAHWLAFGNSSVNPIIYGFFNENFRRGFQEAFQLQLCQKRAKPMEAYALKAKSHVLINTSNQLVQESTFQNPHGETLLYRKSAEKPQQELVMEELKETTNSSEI
Experiment [8] concerns the target T3, Neuropeptide FF receptor 1. Kind of experiment: Agonist activity at NPFFR1 (unknown origin) expressed in HEK293T cells harboring EP2 incubated for 15 mins by cAMP assay. The format is functional, cell-based.
In experiment [9] the target is T3, Neuropeptide FF receptor 1. Kind of experiment: Agonist activity at NPFFR1 (unknown origin) expressed in HEK293T cells harboring EP2 incubated for 15 mins by cAMP assay relative to control. The experiment is classed as functional, cell-based. The note with it: filed as agonist. In general terms: cAMP levels reflect the balance of adenylyl cyclase and phosphodiesterase activity.

Experiment [10] addresses T4, Neuropeptide FF receptor 2. The experiment can be described thus: Agonist activity at NPFFR2 (unknown origin) expressed in HEK293T cells harboring EP2 incubated for 15 mins by cAMP assay relative to control. The format is functional, cell-based. The note with it: filed as agonist.
The nature of experiment [11]: Displacement of [125I]-1DMe from NPFF receptor in Sprague-Dawley rat dorsal horn of spinal cord incubated for 150 mins by autoradiography. The format is tissue-based.
For experiment [12], the target named is T4, Neuropeptide FF receptor 2. Kind of experiment: Displacement of TAMRA-NPFF from human NPFFR2 expressed in CHO-K1 cells preincubated for 15 mins followed by GTPgammaS addition and measured after 15 to 120 mins by competitive binding assay. The format is cell-based.
Experiment [13] concerns the target T4, Neuropeptide FF receptor 2. Kind of experiment: Agonist activity at human NPFFR2 expressed in CHO cells assessed as inhibition of forskolin-induced intracellular cAMP production incubated for 5 hrs by firefly/renilla luciferase reporter assay. The experiment is classed as functional, cell-based.
Experiment [14] addresses T4, Neuropeptide FF receptor 2. Kind of experiment: Displacement of [125I]NPFF from human NPFFR2 expressed in CHO cell membranes incubated for 120 mins by scintillation/luminescence counting method. More on the design: species or system Membrane.
For experiment [15], the target named is T4, Neuropeptide FF receptor 2. The experiment can be described thus: Antagonist activity at human NPFFR2 expressed in CHO-RD-HGA16 cells assessed as reduction in NPFF-induced calcium influx by measuring apparent dissociation constant Ke preincubated for 15 mins followed by NPFF addition by calcium-5 dye based fluorescence method. The format is functional, cell-based. Conditions: CHO/Galpha16, filed as antagonist.

Experiment [16] addresses T3, Neuropeptide FF receptor 1. Kind of experiment: Displacement of [125I]NPFF from human NPFFR1 expressed in CHO cell membranes incubated for 120 mins by scintillation/luminescence counting method. More on the design: species or system Membrane.
The target of experiment [17] is T3, Neuropeptide FF receptor 1. The experiment can be described thus: Antagonist activity at human NPFFR1 expressed in CHO-K1 cells assessed as apparent dissociation constant Ke by Eu-cAMP tracer based TR-FRET assay. Conditions: filed as antagonist. The format is functional, cell-based.
For experiment [18], the target named is T3, Neuropeptide FF receptor 1. Kind of experiment: Antagonist activity at human NPFFR1 expressed in CHO-RD-HGA16 cells assessed as reduction in NPFF-induced calcium influx by measuring apparent dissociation constant Ke preincubated for 15 mins followed by NPFF addition by calcium-5 dye based fluorescence method. The experiment is classed as functional, cell-based. Conditions: CHO/Galpha16, filed as antagonist.

Experiment [19] concerns the target T4, Neuropeptide FF receptor 2. The experiment can be described thus: Antagonist activity at human NPFFR2 expressed in CHO-K1 cells assessed as apparent dissociation constant Ke by Eu-cAMP tracer based TR-FRET assay. The format is functional, cell-based. Conditions: filed as antagonist.

In the case of `CC(C)C[C@H](NC(=O)[C@@H](N)Cc1ccc(O)cc1)C(=O)N[C@@H](Cc1ccccc1)C(=O)N[C@@H](CCC(N)=O)C(=O)N1CCC[C@H]1C(=O)N[C@@H](CCC(N)=O)C(=O)N[C@@H](CCCN=C(N)N)C(=O)N[C@@H](Cc1ccccc1)C(N)=O` (H-YLFQPQRF-NH2), in [1], affinity was put at a Ki of 0.0002 µM. The MEC in the experiment with Mus musculus worked out at 8.8 nmol.
The like results for `CC(C)C[C@H](NC(=O)[C@@H](N)Cc1ccccc1)C(=O)N[C@@H](Cc1ccccc1)C(=O)N[C@@H](CCC(N)=O)C(=O)NCC(=O)N[C@@H](CCC(N)=O)C(=O)N[C@@H](CCCN=C(N)N)C(=O)N[C@@H](Cc1ccccc1)C(N)=O` (H-FLFQGQRF-NH2) were, in that order, 0.0012 µM and 8.8 nmol.
On to `CN(C)c1cccc2c(S(=O)(=O)N3CCC[C@H]3C(=O)N[C@@H](CCC(N)=O)C(=O)N[C@@H](CCCNC(=N)N)C(N)=O)cccc12` [DANSYLPQRAMIDE], for which the affinity in [2] corresponds to a Ki of 13 µM.
As to `NC(N)=N/N=C/c1ccc(Cl)c(Cl)c1`, the Ki (in experiment [3]; in experiment [4]; at KiSS-1 receptor) was above 5 µM each time.
As to `N=C(N)N/N=C/c1ccc(Cl)c(C(F)(F)F)c1`, the Efficacy in experiment [5] came to 30.6%; in experiment [7], 108%; in [9], 42%; in experiment [10], 89%. For the same molecule, the 50% effective concentration (EC50) in experiment [6] and in experiment [8] was 3.16 µM in each case.
As to `CC(C)C[C@H](NC(=O)[C@@H](N)Cc1ccccc1)C(=O)N[C@@H](Cc1ccccc1)C(=O)N[C@@H](CCC(N)=O)C(=O)N1CCC[C@H]1C(=O)N[C@@H](CCC(N)=O)C(=O)N[C@@H](CCCN=C(N)N)C(=O)N[C@@H](Cc1ccccc1)C(N)=O`, in the experiment with Mus musculus, the MEC is on record as 22 nmol. Moreover, the Ki in [11] turned out to be 0.00034 µM.
`N=C(N)N/N=C/c1ccc(Cl)c(Cl)c1` displayed an Efficacy in [5] of 12%.
In the case of `COc1cc2c(c(OC)c1OC)-c1c(cc3c(c1OC)CC3)[C@@H](C(=O)Oc1ccccc1)[C@@](C)(O)[C@@H](C)C2`, the affinity in experiment [12], expressed as Ki, was 0.00217 µM. The EC50 in experiment [13] was determined as 2.22 µM.
On to `CCCCCOC(=O)[C@@H]1C[C@H](NCc2ccc(OC)cc2)CN1Cc1ccccc1Cl`, for which the inhibition constant Ki in experiment [14] stood at 1.44 µM; in experiment [16], 0.89 µM. The Ke in experiment [15] stood at 3.09 µM; in [17], 0.36 µM; in [18], 0.85 µM; in experiment [19], 2.15 µM.
In [12], `COc1cc2c(c(OC)c1OC)-c1c(cc(C)c(C)c1OC)[C@@H](C(=O)Oc1ccccc1)[C@@](C)(O)[C@@H](C)C2` returned an inhibitory constant (Ki) of 0.00142 µM. For the same molecule, the EC50 in experiment [13] was determined as 1.47 µM.

For orientation: Ki means a measure of affinity in units of concentration, obtained from inhibition or displacement. A high value points to a looser hold on the target. For orientation: EC50 means the midpoint of the concentration-response curve.
